Assay results taken from patent publication US20190142864A1, “METHODS AND SYSTEMS, FOR INTERFERING WITH VIABILITY OF BACTERIA AND RELATED ANTIMICROBIALS AND COMPOSITIONS” (CALIFORNIA INSTITUTE OF TECHNOLOGY, priority 2017, published 2019).
“Also recorded” adds a separate entry of the source.

Legend:
P. aeruginosa cultures [1] = test: Bacterial-survival endpoint assay, viable-cell plate counts after 4 hr; format: cell-based, Pseudomonas aeruginosa; details: for lethality (viable-cell plate counts): anoxic conditions with 400 μM nitrate; for lethality (viable-cell plate counts) / sensitivity of cultures (viable-cell plate counts): 40 μg/ml tobramycin, 10 mM chlorate
Procedure: In aerobic-survival endpoint assays, overnight aerobic cultures were pelleted, washed twice with and resuspended in LB, and added to a 96-well microtiter plate at high cell density (optical density at 500 nm [OD500]˜3). Wells also contained sodium chlorate (final concentration, 10 mM), sodium chlorite (final concentration, 10 mM), tobramycin (final concentration, 40 μg ml^−1), or an equal volume (20 μl) of dH2O in untreated-control wells (200-μl total volume per well). Ninety-six-well plates were incubated at 37° C. with shaking at 250 rpm for 4 hr before viable cells on plates were counted. Anaerobic-survival endpoint assays were performed as described above, except […], […], and 96-well plates were incubated anaerobically at 33° C. for 4 hr and then removed from the glove box so that cultures could be serially diluted for viable-cell plate counts.
(§1) Viable-cell plate counts were performed by serially diluting samples in phosphate-buffered saline (PBS). Dilutions spanning 7 orders of magnitude were plated on LB agar plates as 10-μl drips. Plates were incubated at 37° C. for ˜20 h, and incubation continued at room temperature (72 hr of total incubation) to allow for the growth of slow-growing colonies. Colonies were counted daily, and numbers of CFU per milliliter were calculated at the end of the incubation period. All viable-cell plate counting was carried out under aerobic conditions.
High-density P. aeruginosa cultures (˜10^9CFU ml^−1) were incubated with and without drugs under oxic conditions, […], or anoxic conditions without nitrate (no terminal electron acceptor) for 4 h, after which viability was determined (FIG. 1).

P. aeruginosa cultures [2] = test: 72 hr survival assay with viable-cell counts and chlorate quantification; format: cell-based, Pseudomonas aeruginosa; details: 1 mM chlorate
Procedure: as §1

[3] = test system: P. aeruginosa ΔlasR mutant; test: 72 hr anoxic survival assay with viable-cell counts and chlorate quantification, ΔlasR; format: cell-based, Pseudomonas aeruginosa; details: anoxic conditions, 1 mM chlorate
Procedure: as §1

[4] = test system: P. aeruginosa narG transposon mutant; test: Anaerobic adaptation and survival, narG mutant; format: cell-based, Pseudomonas aeruginosa; details: 1 mM chlorate, 72 hr anoxic
Procedure: Overnight cultures were grown aerobically in LB with 40 mM KNO3, 100 mM L-arabinose, 50 μg ml^−1 gentamicin (for strains containing pMQ72-derived plasmids), and 50 μg ml^−1 kanamycin (for transposon insertion strains). Overnight cultures were pelleted, washed twice in LB with 100 mM L-arabinose to remove antibiotics, and resuspended in LB with 100 mM L-arabinose with or without 1 mM sodium chlorate at high cell density (OD500˜3). Two hundred microliters of resuspended culture was added to 96-well microtiter plates, and the plates were moved to the anaerobic glove box for cells to adapt to the anaerobic lifestyle. After a 72-hr incubation at 33° C., 96-well plates were removed from the anaerobic glove box and viable cells on plates were counted to calculate numbers of CFU per milliliter (described above). Percent survival was calculated for each strain by dividing CFU-permilliliter values from cultures containing chlorate by the average CFU-per-milliliter value from control cultures lacking chlorate and multiplying by 100. CFU-per-milliliter values of untreated control cultures were similar across strains, ranging from 1.0×10^9 to 2.2×10^9. The percentage of chlorate remaining after the 72-hr incubation was determined for each strain by dividing the final chlorate concentration in each culture by the initial chlorate concentration in the medium and multiplying by 100. […]

[5] = test system: P. aeruginosa ΔlasR ΔnarGHJI strain; test: Anaerobic adaptation and survival, ΔlasR ΔnarGHJI; format: cell-based, Pseudomonas aeruginosa; details: 1 mM chlorate, 72 hr anoxic
Procedure: The narGHJI genes were deleted in WT PA14 and the isogenic ΔlasR background. The region upstream of narG was amplified using primers 5′-[…]-3′ (SEQ ID NO: 11) and 5′-[…]-3′ (SEQ ID NO: 12), and the region downstream of narI was amplified using primers 5′-[…]-3′ (SEQ ID NO: 13) and 5′-[…]-3′ (SEQ ID NO: 14). These fragments were cloned into HindIII- and SacI-digested pMQ30 (89) via Gibson cloning. […]
Overnight cultures were grown aerobically in LB with 40 mM KNO3, 100 mM L-arabinose, 50 μg ml^−1 gentamicin (for strains containing pMQ72-derived plasmids), and 50 μg ml^−1 kanamycin (for transposon insertion strains). […] After a 72-hr incubation at 33° C., 96-well plates were removed from the anaerobic glove box and viable cells on plates were counted to calculate numbers of CFU per milliliter (described above). Percent survival was calculated for each strain by dividing CFU-permilliliter values from cultures containing chlorate by the average CFU-per-milliliter value from control cultures lacking chlorate and multiplying by 100. […] The percentage of chlorate remaining after the 72-hr incubation was determined for each strain by dividing the final chlorate concentration in each culture by the initial chlorate concentration in the medium and multiplying by 100.

[6] = test system: P. aeruginosa aggregate biofilms; test: Agar block biofilm assay (ABBA), LIVE/DEAD staining and confocal microscopy; format: cell-based, Pseudomonas aeruginosa; details: 6 hr treatment; for killing of cells in aggregates at depth (SYTO 9/propidium iodide) / killing of cells in middepth aggregates (SYTO 9/propidium iodide) / killing of cells in surface aggregates (SYTO 9/propidium iodide): 40 μg/ml tobramycin, 10 mM chlorate; for viability of cells at depths of >200 μm: tobramycin compared to untreated samples
Procedure: Overnight aerobic cultures were diluted to an OD500 of 0.001 in molten agar growth medium that had been cooled to 44° C. For all agar block biofilm assays (ABBAs), the growth medium used was LB with 5 mM KNO3 and 0.5% noble agar. A portion of the dilution (175 p.1) was added to chambered cover glass slides (Thermo Fisher Scientific number 155409), solidified at room temperature, and incubated at 37° C. for 12 hr in a humidified chamber. After incubation, cells that were not suspended in the agar were removed by adding 400 μl PBS to the top of each agar block and gently pipetting. Liquid was removed by inversion, and the wash was repeated. Aggregate cells were then treated by pipetting 125 μl of 24 mM sodium chlorate (final concentration, 10 mM), 125 μl of 96 μg ml^−1 tobramycin (final concentration, 40 μg ml^−1), or 62.5 μl of 48 mM chlorate and 62.5 μl of 192 μg ml^−1 tobramycin in combination (10 mM and 40μg m^−1 final concentrations, respectively) on the top of the agar block. All chlorate and tobramycin solutions were made in LB, and 125 μl LB was pipetted on the top of untreated control agar blocks. Treated and untreated samples were incubated at 37° C. in a humidified chamber, with shaking at 220 rpm for 6 hr. After incubation, samples were inverted to remove liquid, and cells were stained using a BacLight LIVE/DEAD bacterial viability staining kit (Thermo Fisher Scientific number L7012). One hundred twenty-five microliters of staining solution (1 μl 3.34 mM SYTO 9, 1 μl 20 mM propidium iodide, 123 μl dH2O) was added to each sample, and samples were incubated at room temperature on a VWR variable-speed rocker at the highest speed for 90 min before being imaged.
Before being imaged, ABBA samples were inverted to remove the staining solution, and 75 μl of a 1:50 dilution of 5-μm fluorescent beads (Spherotech; CFP-5045-2) was added to each sample. Excess liquid was removed by wicking, and beads were used to mark the surface of each sample. ABBA aggregates were imaged using a Leica TCS SPE confocal microscope with an ACS APO 0.3-numeric-aperture/10× objective. The agar surface was determined by visualizing fluorescent beads using a 405-nm solid-state laser for excitation, with data collected from 425 to 475 nm. LIVE/DEAD data were collected using a 488-nm solid-state laser for excitation, with emission collected at 510 to 550 nm and 610 to 650 nm for SYTO 9 and propidium iodide, respectively. Images were collected from three distinct locations near the center of each well as 500-μm z-stacks (50 slices total, 10-μm step size). z-stacks were collected in 8-bit mode with a scan format of 512 by 512 pixels (for quantification) or 1,024 by 1,024 pixels (for representative images) and line averaging of 2. Representative images were chosen from 6 independent experiments.
To quantify ABBA staining, images were loaded in Fiji (92), and background was subtracted from each image using the rolling ball method with a radius of 100 pixels. A threshold was applied to all images to exclude pixels with a value of <20, and total pixel intensity for both stains was determined for each image using the RawIntDen value in the Integrated Density measurement function. The proportion of sensitive cells was determined for each image (at each depth) by dividing the propidium iodide integrated density by the sum of the propidium iodide- and SYTO 9-integrated densities. ABBA staining quantifications are averages from 6 independent experiments (3 technical replicates per independent experiment).
In the ABBA system, an overnight culture is diluted into 0.5% molten agar medium, allowed to solidify, and incubated overnight at 37° C. Agar-suspended cells grow as aggregates, which develop into metabolically distinct populations at different spatial scales.

[7] = Stability of concentrations in cell-free growth medium (ion chromatography); details: LB, 72 hr; 1 mM chlorate oxic, anoxic, anoxic with 40 mM nitrate; 40 mM nitrate anoxic plus 1 mM chlorate
Procedure: One millimolar chlorate concentrations were monitored in LB that was incubated for 72 hr under oxic conditions (filled circles), anoxic conditions (open circles), and anoxic conditions with 40 mM nitrate (open circles). Forty millimolar nitrate concentrations were monitored in LB medium that was incubated for 72 hr under anoxic conditions plus 1 mM chlorate (filled circles).
Culture samples were centrifuged at 16,000×g at room temperature for 10 min to pellet cells. Supernatants were diluted 1:10 in dH2O and added to 0.5-ml vials (Thermo Fisher Scientific catalog numbers 038010 and 038011). Nitrate and chlorate concentrations were quantified using the Dionex ICS 2000 ion chromatography system (Environmental Analysis Center, Caltech). Samples were loaded via a 15-μl sample loop onto an AS-19 separator (2- by 250-mm) column protected by an AG-19 guard (2 by 50 mm), maintained at 30° C. […] Anions were detected at neutral pH using an AERS 500 2-mm suppressor (Thermo Fisher Scientific) operated in eluent recycle mode with an applied current of 30 mA, and the conductivity detection cell was maintained at 35° C. […] Sodium chlorate and potassium nitrate standards were used to identify sample analytes via retention time and to generate standard curves for quantifying analyte concentrations.

[8] = anoxic conditions with 40 mM nitrate
[9] = anoxic conditions without nitrate

| Compound | lethality (viable-cell plate counts) (P. aeruginosa cultures [1]) | sensitivity of cultures (viable-cell plate counts) (P. aeruginosa cultures [1]; [8]) | sensitivity of cultures (viable-cell plate counts) (P. aeruginosa cultures [1]; [9]) | sensitivity of cultures (viable-cell plate counts) (P. aeruginosa cultures [1]; oxic conditions) | chlorate-associated cell death (P. aeruginosa cultures [2]; anoxic cultures with 40 mM nitrate) | chlorate-associated cell death (P. aeruginosa cultures [2]; oxic cultures) | viable-cell counts in ΔlasR cultures lower than WT at end of experiment [3] | chlorate sensitivity (viable-cell counts) ([4]; narG mutant complemented with narGHJI genes) | chlorate sensitivity (viable-cell counts) ([4]; narG mutant) | chlorate sensitivity (percent survival) [5] | killing of cells in aggregates at depth (SYTO 9/propidium iodide) [6] | killing of cells in middepth aggregates (SYTO 9/propidium iodide) [6] | killing of cells in surface aggregates (SYTO 9/propidium iodide) [6] | viability of cells at depths of >200 μm [6] | stability of concentration in cell-free growth medium (abiotic controls) [7] | sensitivity of anoxic cultures compared with oxic cultures (P. aeruginosa cultures [1]; 10 mM chlorite) |
| --- | --- | --- | --- | --- | --- | --- | --- | --- | --- | --- | --- | --- | --- | --- | --- | --- |
| [O-][Cl+2]([O-])O [chlorate, sodium chlorate] | indistinguishable from that in cultures lacking nitrate | does not kill; also recorded: tolerant | sensitive; also recorded: kills | does not kill | does not occur until nitrate is consumed | no chlorate-associated cell death | 100 fold | restores chlorate sensitivity | resistant | chlorate tolerant | killed | the exterior of middepth aggregates are chlorate tolerant, whereas aggregates at depth and the interior of middepth aggregates are killed | tolerant | most cells at depths of >200 μm are dead | stable | – |
| O=[N+]([O-])[O-].[K+] [nitrate, KNO3] | – | – | – | – | – | – | – | – | – | – | – | – | – | – | stable | – |
| NC[C@H]1O[C@H](O[C@H]2[C@H](O)[C@@H](O[C@H]3O[C@H](CO)[C@@H](O)[C@H](N)[C@H]3O)[C@H](N)C[C@@H]2N)[C@H](N)C[C@@H]1O [tobramycin, reference compound] | indistinguishable from that in cultures lacking nitrate | sensitive | tolerant | sensitive | – | – | – | – | – | – | tolerant | cells on the exterior being killed and cells on the interior staying alive | killed | increased survival | – | – |
| sodium chlorite [reference compound] | – | – | – | – | – | – | – | – | – | – | – | – | – | – | – | much more sensitive |
